Counter-ions that a name gives are not always drawn.
Experiments:
Details in all cases: incubation time: 27 h, anaerobic, 37 °C
[1] = test system: Escherichia coli IAI1; test: fold change of Putrescine concentration vs plate DMSO controls (fold change (ratio)); higher = more amine produced
[2] = test system: Escherichia coli IAI1; test: fold change of Cadaverine concentration vs plate DMSO controls (fold change (ratio)); higher = more amine produced
[3] = test system: Escherichia coli IAI1; test: growth (OD595) fold change vs plate DMSO controls (fold change (ratio)); higher = more growth
[4] = test system: Clostridium sporogenes DSM 1664; test: fold change of Tryptamine concentration vs plate DMSO controls (fold change (ratio)); higher = more amine produced
[5] = test system: Clostridium sporogenes DSM 1664; test: growth (OD595) fold change vs plate DMSO controls (fold change (ratio)); higher = more growth
[6] = test system: Ruminococcus gnavus DSM 108212; test: fold change of Tryptamine concentration vs plate DMSO controls (fold change (ratio)); higher = more amine produced
[7] = test system: Ruminococcus gnavus DSM 108212; test: fold change of 2-Phenylethylamine concentration vs plate DMSO controls (fold change (ratio)); higher = more amine produced
[8] = test system: Ruminococcus gnavus DSM 108212; test: growth (OD595) fold change vs plate DMSO controls (fold change (ratio)); higher = more growth

Compound	fold change of Putrescine concentration ([1]; 0.6125 µM)	fold change of Putrescine concentration ([1]; 1.25 µM)	fold change of Putrescine concentration ([1]; 2.5 µM)	fold change of Putrescine concentration ([1]; 5 µM)	fold change of Putrescine concentration ([1]; 10 µM)	fold change of Putrescine concentration ([1]; 20 µM)	fold change of Cadaverine concentration ([2]; 0.6125 µM)	fold change of Cadaverine concentration ([2]; 1.25 µM)	fold change of Cadaverine concentration ([2]; 2.5 µM)	fold change of Cadaverine concentration ([2]; 5 µM)	fold change of Cadaverine concentration ([2]; 10 µM)	fold change of Cadaverine concentration ([2]; 20 µM)	growth ([3]; 0.6125 µM)	growth ([3]; 1.25 µM)	growth ([3]; 2.5 µM)	growth ([3]; 5 µM)	growth ([3]; 10 µM)	growth ([3]; 20 µM)	fold change of Tryptamine concentration ([4]; 0.6125 µM)	fold change of Tryptamine concentration ([4]; 1.25 µM)	also measured
C=CC1=C(C(=O)O)N2C(=O)[C@@H](NC(=O)/C(=N\O)c3csc(N)n3)[C@H]2SC1 [Cefdinir]	0.759	0.836	1.47	0.282	0.152	0.342	1.1	1.18	1.98	0.812	0.533	1.17	0.899	0.905	0.0538	-0.042	-0.0507	-0.0475			
C=CC1=C(C(=O)O)N2C(=O)[C@@H](NC(=O)/C(=N\OCC(=O)O)c3csc(N)n3)[C@H]2SC1 [Cefixime]	0.815	0.897	0.839	2.82	1.37	1.16	1.07	1.07	1.72	2.01	2.2	2.17	0.848	0.903	0.859	0.193	0.0344	-0.00514	0.977	0.994	fold change of Tryptamine concentration ([4]; 2.5 µM): 0.974; fold change of Tryptamine concentration ([4]; 5 µM): 0.937; fold change of Tryptamine concentration ([4]; 10 µM): 0.925; fold change of Tryptamine concentration ([4]; 20 µM): 0.887; growth ([5]; 0.6125 µM): 1.05; growth ([5]; 1.25 µM): 1.02; growth ([5]; 2.5 µM): 0.842; growth ([5]; 5 µM): 0.82; growth ([5]; 10 µM): 0.675; growth ([5]; 20 µM): 0.527
CCN1CCN(C(=O)N[C@@H](C(=O)N[C@@H]2C(=O)N3C(C(=O)O)=C(CSc4nnnn4C)CS[C@H]23)c2ccc(O)cc2)C(=O)C1=O [Cefoperazone dihydrate]	0.765	0.851	3.2	1.77	1.11	1.04	1.07	1.12	1.82	2.14	2.27	2.17	0.9	0.914	0.514	0.0751	0.0151	-0.0235			fold change of Tryptamine concentration ([6]; 0.6125 µM): 1.01; fold change of Tryptamine concentration ([6]; 1.25 µM): 0.955; fold change of Tryptamine concentration ([6]; 2.5 µM): 0.568; fold change of Tryptamine concentration ([6]; 5 µM): 0.22; fold change of Tryptamine concentration ([6]; 10 µM): 0.14; fold change of Tryptamine concentration ([6]; 20 µM): 0.124; fold change of 2-Phenylethylamine concentration ([7]; 0.6125 µM): 0.866; fold change of 2-Phenylethylamine concentration ([7]; 1.25 µM): 0.808; fold change of 2-Phenylethylamine concentration ([7]; 2.5 µM): 0.387; fold change of 2-Phenylethylamine concentration ([7]; 5 µM): 0.153; fold change of 2-Phenylethylamine concentration ([7]; 10 µM): 0.105; fold change of 2-Phenylethylamine concentration ([7]; 20 µM): 0.0986; growth ([8]; 0.6125 µM): 1.55; growth ([8]; 1.25 µM): 1.15; growth ([8]; 2.5 µM): 0.937; growth ([8]; 5 µM): 0.627; growth ([8]; 10 µM): 0.478; growth ([8]; 20 µM): 0.345
CO/N=C(\C(=O)N[C@@H]1C(=O)N2C(C(=O)[O-])=C(C[n+]3ccn4ncccc43)CS[C@H]12)c1nsc(N)n1 [Cefozopran hydrochloride]	0.772	0.919	0.717	0.793	1.12	2.17	0.986	0.959	0.929	0.962	1.38	2.16	0.818	0.863	1.06	1.12	1.15	0.238			fold change of Tryptamine concentration ([6]; 0.6125 µM): 0.714; fold change of Tryptamine concentration ([6]; 1.25 µM): 0.52; fold change of Tryptamine concentration ([6]; 2.5 µM): 0.275; fold change of Tryptamine concentration ([6]; 5 µM): 0.16; fold change of Tryptamine concentration ([6]; 10 µM): 0.148; fold change of Tryptamine concentration ([6]; 20 µM): 0.135; fold change of 2-Phenylethylamine concentration ([7]; 0.6125 µM): 0.623; fold change of 2-Phenylethylamine concentration ([7]; 1.25 µM): 0.361; fold change of 2-Phenylethylamine concentration ([7]; 2.5 µM): 0.162; fold change of 2-Phenylethylamine concentration ([7]; 5 µM): 0.105; fold change of 2-Phenylethylamine concentration ([7]; 10 µM): 0.101; fold change of 2-Phenylethylamine concentration ([7]; 20 µM): 0.0948; growth ([8]; 0.6125 µM): 1.24; growth ([8]; 1.25 µM): 0.965; growth ([8]; 2.5 µM): 1.03; growth ([8]; 5 µM): 1.06; growth ([8]; 10 µM): 1.24; growth ([8]; 20 µM): 0.529
CO/N=C(\C(=O)N[C@@H]1C(=O)N2C(C(=O)O)=C(COC(N)=O)CS[C@H]12)c1ccco1 [Cefuroxime sodium salt]	0.907	0.853	0.758	1.11	2.59	1.24	1.11	1.13	1.09	2.02	2.06	2.13	0.872	0.929	1.03	0.923	0.171	0.0264	1.01	1.01	fold change of Tryptamine concentration ([4]; 2.5 µM): 1.04; fold change of Tryptamine concentration ([4]; 5 µM): 0.764; fold change of Tryptamine concentration ([4]; 10 µM): 0.0406; fold change of Tryptamine concentration ([4]; 20 µM): 0.0242; growth ([5]; 0.6125 µM): 0.8; growth ([5]; 1.25 µM): 0.69; growth ([5]; 2.5 µM): 0.755; growth ([5]; 5 µM): 0.214; growth ([5]; 10 µM): -0.0277; growth ([5]; 20 µM): -0.0443

From the supplement of paper PMC12494721
